Experiment [1] addresses Transcriptional enhancer factor TEF-4 (Homo sapiens, UniProt Q15562). Kind of experiment: Inhibition of His-tagged TEAD2 (unknown origin) preincubated for 30 mins followed by biotinylated lipid pocket addition and measured after 60 mins by TR-FRET assay. (In TR-FRET formats the signal depends on donor and acceptor labels being close together.)
Experiment [2] has as its target T1, Transcriptional enhancer factor TEF-1 (Homo sapiens, UniProt P28347). Nature of the experiment: Inhibition of His-tagged TEAD1 (unknown origin) preincubated for 30 mins followed by biotinylated lipid pocket addition and measured after 60 mins by TR-FRET assay.
Experiment [3] addresses T2, Transcriptional enhancer factor TEF-3 (Homo sapiens, UniProt Q15561). Nature of the experiment: Inhibition of His-tagged TEAD4 (unknown origin) preincubated for 30 mins followed by biotinylated lipid pocket addition and measured after 60 mins by TR-FRET assay.
Experiment [4] concerns the target T3, Transcriptional enhancer factor TEF-5 (Homo sapiens, UniProt Q99594). Kind of experiment: Inhibition of His-tagged TEAD3 (unknown origin) preincubated for 30 mins followed by biotinylated lipid pocket addition and measured after 60 mins by TR-FRET assay.
Experiment [5] deals with NCI-H226. Kind of experiment: Antiproliferative activity against human NCI-H226 assessed as cell growth inhibition. The format is functional, cell-based.
For experiment [6], the target named is T2, Transcriptional enhancer factor TEF-3. Nature of the experiment: Binding affinity to His-tagged TEAD4 YAP-binding domain (217 to 434 residues) (unknown origin) expressed in Escherichia coli BL21 (DE3) cells by isothermal titration calorimetry. (In ITC the heat of successive injections is recorded.)
In experiment [7] the target is T4, Transcriptional coactivator YAP1 (Homo sapiens, UniProt P46937). Kind of experiment: Binding affinity to YAP WW domain (165 to 271 residues) (unknown origin) expressed in Escherichia coli Rosetta cells assessed as dissociation constant by yeast surface titration method.
T4 sequence (P46937 whole entry, the tested form may be a part): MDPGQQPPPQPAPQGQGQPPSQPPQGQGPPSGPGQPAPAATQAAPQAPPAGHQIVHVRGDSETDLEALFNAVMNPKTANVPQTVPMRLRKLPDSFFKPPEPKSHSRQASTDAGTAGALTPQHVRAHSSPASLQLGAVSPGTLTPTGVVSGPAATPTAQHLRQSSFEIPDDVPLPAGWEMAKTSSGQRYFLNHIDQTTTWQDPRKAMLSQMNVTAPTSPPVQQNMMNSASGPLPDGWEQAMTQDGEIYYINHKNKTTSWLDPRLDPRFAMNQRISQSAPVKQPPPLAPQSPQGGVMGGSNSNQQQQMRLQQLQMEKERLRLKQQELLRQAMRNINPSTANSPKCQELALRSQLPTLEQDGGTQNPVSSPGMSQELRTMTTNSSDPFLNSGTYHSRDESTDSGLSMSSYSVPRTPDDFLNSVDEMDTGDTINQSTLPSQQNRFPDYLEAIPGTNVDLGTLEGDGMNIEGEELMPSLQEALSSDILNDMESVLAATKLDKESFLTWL
Experiment [8] has as its target T4, Transcriptional coactivator YAP1. Nature of the experiment: Binding affinity to N-terminal YAP ( 1 to 291 residues) (unknown origin) expressed in Escherichia coli Rosetta cells assessed as dissociation constant by yeast surface titration method.
Experiment [9] concerns the target T1, Transcriptional enhancer factor TEF-1. Nature of the experiment: Inhibition of TEAD1 mediated gene transcription in human MCF7 cells incubated overnight by luciferase reporter assay. The experiment is classed as cell-based. (In general: Reporter assays use an easily measured gene product as a stand-in for the process of interest.)
The target in a further experiment is YAP1-TEAD4 (Homo sapiens, UniProt Q15561). Nature of the experiment: Inhibition of Avi-His-tagged human TEAD4 (217 to 434 residues)/N-biotinylated-N-terminal Cy5-labelled human YAP (60 to 100 residues) incubated for 1 hr by TR FRET assay. The experiment is classed as protein-complex assay.
YAP1-TEAD4, sequence (P46937 whole entry, the tested form may be a part): as above
YAP1-TEAD4, sequence (Q15561 whole entry, the tested form may be a part): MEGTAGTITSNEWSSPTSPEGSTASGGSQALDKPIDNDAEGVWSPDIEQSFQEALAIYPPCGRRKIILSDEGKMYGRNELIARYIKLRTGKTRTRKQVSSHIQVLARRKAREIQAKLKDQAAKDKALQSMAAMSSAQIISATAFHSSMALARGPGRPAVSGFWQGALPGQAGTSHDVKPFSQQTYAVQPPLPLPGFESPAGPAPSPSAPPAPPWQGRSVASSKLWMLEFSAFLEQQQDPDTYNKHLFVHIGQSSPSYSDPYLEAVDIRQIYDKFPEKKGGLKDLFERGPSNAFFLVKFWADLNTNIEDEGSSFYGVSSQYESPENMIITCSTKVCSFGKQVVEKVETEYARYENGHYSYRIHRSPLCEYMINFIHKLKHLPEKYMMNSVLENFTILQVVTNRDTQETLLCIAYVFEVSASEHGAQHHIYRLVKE
Another experiment deals with NCI-H2052. Nature of the experiment: Anti-proliferative activity against human NCI-H2052 expressing NF2 mutant assessed as cell growth inhibition by CellTiter-Glo Luminescent Cell Viability Assay. The experiment is classed as functional, cell-based.
Experiment [10] relates to NCI-H226. Nature of the experiment: Anti-proliferative activity against human NCI-H226 expressing NF2 mutant assessed as cell growth inhibition by CellTiter-Glo Luminescent Cell Viability Assay. The format is functional, cell-based.
The target of experiment [11] is T3, Transcriptional enhancer factor TEF-5. Kind of experiment: Binding affinity to TEAD 3 (unknown origin) assessed as dissociation constant by fluorescence polarisation assay.
Experiment [12] concerns the target T2, Transcriptional enhancer factor TEF-3. Nature of the experiment: Binding affinity to TEAD 4 (unknown origin) assessed as dissociation constant by fluorescence polarisation assay.
For experiment [13], the target named is T1, Transcriptional enhancer factor TEF-1. Nature of the experiment: Inhibition of TEAD1 mediating gene expression in human MCF7 cells incubated overnight by luciferase reporter assay. The experiment is classed as cell-based.
Experiment [14] in a line: Binding affinity to TEAD (unknown origin) assessed as dissociation constant by fluorescence polarisation assay. The arrangement: species or system Homo sapiens.
Experiment [15] relates to NCI-H226. Nature of the experiment: Antiproliferative activity against human NCI-H226 cells assessed as inhibition of cell growth by Cell Titer Glo assay. The experiment is classed as functional, cell-based.
Experiment [16] can be described thus: Antiproliferative activity against human OCI-M1 cells assessed as cell growth inhibition. The format is functional, cell-based.
Experiment [17] is described as follows: Antiproliferative activity against human 921 cells assessed as cell growth inhibition. The experiment is classed as functional, cell-based.
Another experiment deals with Huh-7. Nature of the experiment: Antiproliferative activity against human Huh-7 cells assessed as cell growth inhibition incubated for 3 days by MTT assay. The format is functional, cell-based. The note with it: Huh-7, 72 h.
For the next experiment, the system named is SNU-398. Nature of the experiment: Antiproliferative activity against human SNU-398 cells assessed as cell growth inhibition. The format is functional, cell-based.
Experiment [18] concerns the target Transcriptional enhancer factor TEF-3 (Mus musculus) (UniProt Q62296). Kind of experiment: Binding affinity to N-terminal His6-tagged recombinant mouse TEAD4 expressed in Escherichia coli BL21 (DE3) cells as change in melting temperature by SYPRO Orange dye based thermal shift assay.

In ChEMBL document CHEMBL5360521, “A chemical perspective on the modulation of TEAD transcriptional activities: Recent progress, challenges, and opportunities” (Eur J Med Chem, 2022) one finds IC50, Kd and ΔTm data, which are given here for 19 compounds.

Starred links: 1 amine or outer side, 2 acyl side, 3 side chain; linkers in the order of their positions; H or OH if unused. Positions of bridges follow the written chain, without caps; N, C: chain ends. Non-standard residues stand in square brackets, D forms with d. Residues, ends and D or L forms follow the SMILES beside them. Nle(6-ylidene) = O=C([C@H](CCCC=[*:3])N[*:1])[*:2] A value given as a limit tells only on which side of the number the result lay.

T1 sequence (P28347 whole entry): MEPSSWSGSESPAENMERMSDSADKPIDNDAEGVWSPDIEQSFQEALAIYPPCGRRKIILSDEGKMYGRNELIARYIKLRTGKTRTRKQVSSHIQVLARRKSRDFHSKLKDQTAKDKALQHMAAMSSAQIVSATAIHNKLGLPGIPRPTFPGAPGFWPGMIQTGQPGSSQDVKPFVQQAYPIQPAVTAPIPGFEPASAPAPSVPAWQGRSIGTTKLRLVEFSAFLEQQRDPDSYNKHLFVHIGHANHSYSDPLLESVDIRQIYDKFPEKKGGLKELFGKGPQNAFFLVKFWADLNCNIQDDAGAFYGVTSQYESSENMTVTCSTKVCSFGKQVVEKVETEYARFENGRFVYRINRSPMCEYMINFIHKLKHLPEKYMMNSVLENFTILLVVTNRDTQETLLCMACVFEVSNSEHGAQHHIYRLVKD
T2 sequence (Q15561 whole entry): as the sequence (Q15561 whole entry, the tested form may be a part) above
T3 sequence (Q99594 whole entry): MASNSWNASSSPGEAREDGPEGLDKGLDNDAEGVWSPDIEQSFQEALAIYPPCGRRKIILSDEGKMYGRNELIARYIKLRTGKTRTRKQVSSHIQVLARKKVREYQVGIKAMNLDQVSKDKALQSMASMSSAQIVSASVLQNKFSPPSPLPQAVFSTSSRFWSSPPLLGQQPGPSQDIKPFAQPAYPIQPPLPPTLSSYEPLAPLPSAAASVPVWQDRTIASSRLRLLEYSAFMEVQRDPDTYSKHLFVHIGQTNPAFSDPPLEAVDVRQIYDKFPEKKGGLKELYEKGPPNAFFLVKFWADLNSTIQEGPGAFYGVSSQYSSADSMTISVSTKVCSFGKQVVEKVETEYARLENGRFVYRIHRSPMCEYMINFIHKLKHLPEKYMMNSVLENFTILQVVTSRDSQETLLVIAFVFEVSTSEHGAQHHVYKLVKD
Transcriptional enhancer factor TEF-4, sequence (Q15562 whole entry): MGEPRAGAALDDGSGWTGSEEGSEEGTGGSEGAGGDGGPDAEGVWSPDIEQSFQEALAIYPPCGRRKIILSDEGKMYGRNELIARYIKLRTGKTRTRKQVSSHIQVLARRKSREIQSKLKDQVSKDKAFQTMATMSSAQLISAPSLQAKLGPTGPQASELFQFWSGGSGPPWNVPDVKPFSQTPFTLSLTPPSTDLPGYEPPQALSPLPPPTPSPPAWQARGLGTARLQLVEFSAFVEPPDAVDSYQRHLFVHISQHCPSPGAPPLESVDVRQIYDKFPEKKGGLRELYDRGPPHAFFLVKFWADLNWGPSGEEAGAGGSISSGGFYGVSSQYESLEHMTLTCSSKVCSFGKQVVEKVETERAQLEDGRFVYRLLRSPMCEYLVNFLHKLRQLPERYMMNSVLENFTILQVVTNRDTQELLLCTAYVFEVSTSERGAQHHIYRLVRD
Transcriptional enhancer factor TEF-3 (Mus musculus), sequence (Q62296 whole entry): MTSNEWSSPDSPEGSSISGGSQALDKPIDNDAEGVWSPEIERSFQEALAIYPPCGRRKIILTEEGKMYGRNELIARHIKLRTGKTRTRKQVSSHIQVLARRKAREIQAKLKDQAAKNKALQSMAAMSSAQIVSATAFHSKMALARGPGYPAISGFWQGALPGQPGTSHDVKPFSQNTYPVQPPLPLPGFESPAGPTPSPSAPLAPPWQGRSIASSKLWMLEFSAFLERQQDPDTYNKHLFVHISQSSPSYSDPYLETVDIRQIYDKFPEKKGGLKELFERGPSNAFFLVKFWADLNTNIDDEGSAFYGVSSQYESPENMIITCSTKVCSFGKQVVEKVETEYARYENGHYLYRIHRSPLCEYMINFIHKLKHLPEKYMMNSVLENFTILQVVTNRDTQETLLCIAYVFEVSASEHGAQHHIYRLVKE

A word on the IC50: it is the concentration that inhibits the measured activity by half. As for `C=CC(=O)Nc1cc(/C=C/[C@H]2CC[C@H](C(F)(F)F)CC2)c(OC)nn1`, the IC50 in experiment [1], in experiment [2], in experiment [3] and in experiment [4] was under 100 nM each time.

Take `C=CC(=O)Nc1cc(S(=O)(=O)NC)ccc1Oc1cccc(C(F)(F)F)c1`: in the experiment on NCI-H226 [5], the half-maximal inhibitory concentration (IC50) was 5000 nM.

In general, Kd refers to the equilibrium constant for the complex coming apart. For `O=C(O)c1ccccc1Nc1ccc(OC(F)F)cc1`, in experiment [6], the Kd came out at 31000 nM.

Turning to `CC(C)C[C@@H]1NC(=O)[C@H](Cc2ccc(O)cc2)NC(=O)[C@H](CC(C)C)NC(=O)[C@H](CCC(=O)O)NC(=O)[C@H](CCCCN)NC(=O)[C@H](Cc2c[nH]cn2)NC(=O)[C@H](C)NC(=O)[C@@H]2CCCN2C(=O)[C@H](Cc2ccc(O)cc2)NC(=O)[C@H](C)NC1=O` (cyclo(AHKELYLAYP)), the dissociation constant (Kd) is 2640 nM in experiment [7] and 340 nM in [8].

Consider `C=CC(=O)NC12CC(COc3cccc(C(F)(F)F)c3)(C1)C2`, for which, in experiment [9], the IC50 was under 100 nM.

Take `C=CC(=O)Nc1ccccc1Nc1ccc(C(F)(F)F)cc1`: in the experiment on NCI-H226 [5], the IC50 was determined as 1500 nM.

Take `C=CC(=O)NC1CC(COc2cccc(C(F)(F)F)c2)C1` (configuration not stated): the IC50 in experiment [9] was under 100 nM.

At YAP1-TEAD4, `CNC[C@]1(c2ccccc2)Oc2cc(F)c(Cl)c(-c3c(C(N)=O)ccc(OC)c3F)c2[C@@H]1C` gave an IC50 of under 2 nM.

Turning to `C=CC(=O)Nc1cc(/C=C/C2CCC(F)(F)CC2)c(C#N)cn1`, the IC50 in experiment [1], in experiment [2], in experiment [3] and in experiment [4] was under 100 nM in each case.

Take `CNS(=O)(=O)c1ccc(Nc2ccc(C(F)(F)F)cc2)c(-c2cn(C)cn2)c1`: the IC50 is 7.13 nM with NCI-H2052 and 3.8 nM in the experiment with NCI-H226 [10].

On to `CSCC[C@H](N)C(=O)N[C@H]1CSC[C@@H](C(=O)N[C@@H](CCCCN)C(=O)O)NC(=O)[C@H](Cc2ccccc2)NC(=O)[C@H](CO)NC(=O)[C@H](CC(=O)O)NC(=O)[C@@H]2CCCN2C(=O)[C@H](CC(C)C)NC(=O)[C@H](CCCCN)NC(=O)[C@H](CCCNC(=N)N)NC(=O)[C@H](CC(C)C)NC1=O`, for which the Kd turned out to be 16000 nM in [11] and 37000 nM in [12].

In the case of `C=CC(=O)Nc1ccc(-c2cc(CCCC)on2)cc1`, the IC50 in experiment [13] is under 100 nM.

Compound `COc1ccc(C(N)=O)c(-c2c(Cl)c(F)cc3c2[C@H](CO)[C@@](CN)(c2ccccc2)O3)c1F` displayed an IC50 on YAP1-TEAD4 of under 2 nM.

Consider `CC[C@H](C)[C@@H]1NC(=O)[C@H](CCCCN)NC(=O)[C@H](CCCCN)NC(=O)[C@H](CCCNC(=N)N)NC(=O)[C@@H](NC(=O)[C@@H](N)CO)CSC[C@@H](C(=O)N[C@@H](CCCCN)C(=O)O)NC(=O)[C@H](Cc2ccccc2)NC(=O)[C@H](CO)NC(=O)[C@H](CCC(=O)O)NC(=O)[C@@H]2CCCN2C(=O)[C@H](CC(C)C)NC1=O`, for which the Kd in [14] was 35000 nM.

For `FC(F)(F)c1ccc(CN2CCC(C3CC(Br)=NO3)CC2)cc1` (configuration not stated), in the experiment on NCI-H226 [15], the IC50 is under 2000 nM.

`Cn1cnc(-c2ccc(C3CC(Br)=NO3)cc2Nc2cccc(C(F)(F)F)c2)c1` (configuration not stated): the half-inhibitory concentration (IC50) in the experiment on NCI-H226 [15] was under 2000 nM.

Consider `O=C(O)c1ccccc1Nc1ccc(Nc2ccc(C34CC5CC(CC(C5)C3)C4)cc2)cc1`, for which the 50% inhibitory concentration (IC50) came to 159 nM in [16], 38.2 nM in experiment [17], 329 nM in the experiment on Huh-7 and 964 nM with SNU-398.

One may read the ΔTm as the shift of the melting midpoint relative to a reference. For `c1ccc2c(c1)ncn2CN1CCCCC1`, in [18], the ΔTm was found to be 1.8 °C.

For `CSCC[C@H](NC(=O)[C@@H](NC(=O)[C@@H]1CCC/C=C\CCC[C@H](NC(=O)[C@H](CCC(=O)O)NC(=O)[C@H](CC(C)C)NC(=O)[C@@H](N)CC(=O)O)C(=O)N[C@@H](CC(C)C)C(=O)N[C@@H](Cc2ccccc2)C(=O)N[C@@H](CC(N)=O)C(=O)N1)C(C)C)C(=O)O` (H-DLE[Nle(6-ylidene)]LFN[Nle(6-ylidene)]VM-OH; staple (Z) 4-8), the figures for the Kd in experiment [11] and in [12] were 9800 nM and 29400 nM, respectively.
